Data reported in ChEMBL document CHEMBL2151013, “Diarylheptanoid sulfates and related compounds from Myrica rubra bark” (J Nat Prod, 2012).
≈ marks a conversion by molar mass, not a printed value.

Key:
[1] = Antioxidant activity assessed as superoxide dismutase-like activity by SOD-WST assay; format: functional
[2] = Antioxidant activity assessed as trolox equivalent of […]-induced radical scavenging activity by ORAC fluorescence assay; format: functional

SMILES	IC50 [1]	Activity [2]
COC1=C(OC)C(=O)C2=C(CCCCC(O)CCc3ccc(O)c2c3)C1=O (stereo not drawn) [ACTINIDIONE]	7.9 µg/mL (≈ 21.2 µM)	
COc1c2cc(c(O)c1OC)CCCCC(=O)CCc1ccc(O)c-2c1 [MYRICANONE]	> 1000 µg/mL	
COc1c2cc(c(O[C@@H]3O[C@H](COC(=O)c4cc(O)c(O)c(O)c4)[C@@H](O)[C@H](O)[C@H]3O)c1OC)CCCC[C@H](O)CCc1ccc(O)c-2c1	139.6 µg/mL (≈ 208 µM)	
O=C(O[C@@H]1[C@@H](c2c(O)cc(O)c3c2O[C@H](c2cc(O)c(O)c(O)c2)[C@H](OC(=O)c2cc(O)c(O)c(O)c2)C3)c2c(O)cc(O)cc2O[C@@H]1c1cc(O)c(O)c(O)c1)c1cc(O)c(O)c(O)c1	19.2 µg/mL (≈ 21 µM)	
COc1c2cc(c(O)c1OC)CCCC[C@@H](OS(=O)(=O)O)CCc1ccc(O)c-2c1	786.9 µg/mL (≈ 1790 µM)	8680 µmolequiv/g
C[C@@H]1O[C@@H](Oc2c(-c3cc(O)c(O)c(O)c3)oc3cc(O)cc(O)c3c2=O)[C@H](OC(=O)c2cc(O)c(O)c(O)c2)[C@H](O)[C@H]1O	38.6 µg/mL (≈ 62.6 µM)	
O=c1c(O)c(-c2cc(O)c(O)c(O)c2)oc2cc(O)cc(O)c12 [MYRICETIN]	139.6 µg/mL (≈ 439 µM)	16100 µmolequiv/g
O=C(O)c1cc(O)c(O)c(O)c1 [GALLIC ACID]	6.3 µg/mL (≈ 37 µM)	
COc1c2cc(c(O[C@@H]3O[C@H](COC(=O)c4cc(O)c(O)c(O)c4)[C@@H](O)[C@H](O)[C@H]3O)c1OC)CCCCC(=O)CCc1ccc(O)c-2c1	106.8 µg/mL (≈ 159 µM)	
COc1c2cc(c(O)c1OC)CCCC[C@@H](O)CCc1ccc(O)c-2c1	> 100 µg/mL	
COc1cc2cc(c1O)-c1cc(ccc1O)CC[C@@H](OS(=O)(=O)O)CCCC2	> 1000 µg/mL	9620 µmolequiv/g
O=C(O[C@@H]1Cc2c(O)cc(O)cc2O[C@@H]1c1cc(O)c(O)c(O)c1)c1cc(O)c(O)c(O)c1 [EPIGALOCATECHIN GALLATE]	26.1 µg/mL (≈ 56.9 µM)	
COc1c2cc(c(O[C@@H]3O[C@H](COC(=O)c4cc(O)c(O)c(O)c4)[C@@H](O)[C@H](O)[C@H]3O)c1OC)CCCC[C@@H](O)CCc1ccc(O)c-2c1	90.5 µg/mL (≈ 135 µM)	
C[C@H]1O[C@@H](Oc2c(-c3cc(O)c(O)c(O)c3)oc3cc(O)cc(O)c3c2=O)[C@@H](O)[C@@H](O)[C@@H]1O [MYRICITRIN]	127.5 µg/mL (≈ 275 µM)	13200 µmolequiv/g
